According to PMC8151276, “An Integrated Approach toward NanoBRET Tracers for Analysis of GPCR Ligand Engagement” (Molecules, 2021):

Biological target: T1, CXCR5 (Homo sapiens, UniProt P32302)
T1 construct: purchased Promega (in-house HiBiT-GPCR construct library, NanoBRET)
T1 sequence (P32302 1-372): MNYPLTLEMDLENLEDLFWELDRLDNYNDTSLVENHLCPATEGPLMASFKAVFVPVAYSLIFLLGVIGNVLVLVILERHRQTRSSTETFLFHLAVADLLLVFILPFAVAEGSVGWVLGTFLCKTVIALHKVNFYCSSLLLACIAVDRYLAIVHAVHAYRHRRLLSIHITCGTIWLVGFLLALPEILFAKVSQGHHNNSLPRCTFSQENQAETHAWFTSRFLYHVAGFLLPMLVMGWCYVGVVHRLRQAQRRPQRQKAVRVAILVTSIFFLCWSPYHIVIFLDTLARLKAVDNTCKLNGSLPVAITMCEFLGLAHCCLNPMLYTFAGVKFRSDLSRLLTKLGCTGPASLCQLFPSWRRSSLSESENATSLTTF
Test: NanoBRET screen HiBiT-CXCR5 in HEK293
Type: binding
Procedure: Each tracer candidate was screened across the entire library of HiBiT-GPCR constructs using NanoBRET as the detection modality. As depicted in Figure 4A, the specificity of interactions was evaluated through decrease in BRET due to competitive displacement of a bound tracer by excess parental compound. Each tracer was analyzed for binding to each HiBiT-GPCR fusion in the absence and in the presence of competing parental compound. Briefly, HEK293 cells were transfected with HiBiT-GPCR constructs diluted into promoterless DNA to reduce expression and maximize translocation to the cell surface. Each tracer candidate was then screened at concentrations of 1 μM and 0.1 μM across cells expressing these fusions. Cells were treated for 1.5 h with tracer either alone or in the presence of 20 μM competing parental compound (i.e., control). BRET was measured upon addition of purified LgBiT and subsequent complementation with HiBiT genetically fused to a GPCR. The specificity of interactions was assessed through a decrease in BRET signal due to competitive displacement of the bound tracer. To further gauge the robustness of these interactions, the fold response over the control (i.e., BRETtracer/BRETcontrol) was calculated. We chose a 1.5-fold response, which translates to ≥7-fold signal over noise as the minimal threshold required to score an interaction as positive. […]. Below we highlight the screening results obtained for our exemplary fluorescent tracers based on Clozapine, Amitriptyline and AZD1283.
HiBiT-GPCR DNA constructs were diluted in 10 mM Tris pH 8 to a final concentration of 0.01 μg/μL, arrayed in 96-well plates and stored at −20 °C. For transfection, HEK293 cells were suspended in Opti-MEM (without phenol red) supplemented with 2% fetal bovine serum (Seradigm) and 100 units/mL penicillin–streptomycin (Gibco) at a final concentration of 220,000 cells/mL and dispensed into white 96-well plates at 90 μL/well. Subsequent transfections and screens were carried using an Agilent Bravo Automated Liquid Handling Platform. First, the 96-well HiBiT DNA arrays were diluted 25-fold in Opti-MEM (without serum or phenol red) to a final concentration of 0.0004 μg/μL and 20 μL of the diluted DNAs were transferred into new 96-well plates. Next, promoterless carrier DNA (1 μg/μL) was diluted 25-fold (0.04 μg/μL) and then dispensed into the diluted arrays at 20 μL/well. Following brief mixing, Viafect transfection reagent (Promega) diluted 16-fold into Opti-MEM was dispensed into the plates at 40 μL/well. After mixing by pipetting, plates were incubated for 10 min on the pipetting station deck. The DNA-transfection reagent complexes were then added to plates containing cells. To facilitate the screen, 10 μL of DNA-transfection reagent complexes were added in duplicates to the top 4 and bottom 4 rows, resulting in two identical 48-well arrays per plate. Plates with transfected cells were incubated for 18–20 h at 37 °C/5% CO2. A screen of each tracer across the entire library using two different concentrations requires duplicate plates of transfected cells. Depending on the number of tracers being screened, transfections can be scaled up using the same ratios. The next day, for each tracer, four 20× screening solutions in tracer dilution buffer (Promega) were prepared: two duplicates at final concentration of 20 μM and two duplicates at a final concentration of 2 μM. A competing unmodified compound was added to one of each duplicate at a final concentration of 400 μM. The four resulting solutions were diluted 4-fold in Opti-MEM without serum or phenol red to generate 5× solutions (5 µM and 0.5 µM tracer +/− 100 μM competing compound). To screen the library, a BioTek MultiFlo FX liquid dispenser was used to dispense 22.5 µL of tracer solution to the top 4 rows and 22.5 µL tracer + competing compound solution to the 4 bottom rows. Plates were briefly mixed on an orbital shaker and incubated for 1.5 h at room temperature. […]

SMILES | NanoBRET Fold Response (CXCR5, tracer 0.1μM) | NanoBRET Fold Response (CXCR5, tracer 1μM) | also measured
O=C(CCOCCOCCOCCOCCNC(=O)CCc1ccc2n1[B-](F)(F)[N+]1=C(c3ccc[nH]3)C=CC1=C2)NCCCN1CCN(C2=Nc3ccccc3Oc3ccc(Cl)cc32)CC1 [Loxapine-a-2-NB590] | 0.29 | 0.90 | 
CCCn1c(=O)c2[nH]c(-c3ccc(OCC(=O)NCCNC(=O)CCOCCNC(=O)c4ccc(CNC(=O)CCc5ccc6n5[B-](F)(F)[N+]5=C(c7ccc[nH]7)C=CC5=C6)cc4)cc3)nc2n(CCC)c1=O [XAC-3-NB590] | 1.23 | 0.87 | 
CN(C)CCC=C1c2ccccc2CCc2ccc(C(=O)NCCNC(=O)CCOCCOCCOCCOCCNC(=O)CCc3ccc4n3[B-](F)(F)[N+]3=C(c5ccc[nH]5)C=CC3=C4)cc21 [Amitriptyline-a-2-NB590] |  |  | NanoBRET Fold Response (tracer at 0.1μM): 1.04; NanoBRET Fold Response (tracer at 1μM): 1.01
COc1ccccc1N1CCN(CCCCN2C(=O)c3ccc(CNC(=O)CCOCCOCCOCCOCCNC(=O)CCc4ccc5n4[B-](F)(F)[N+]4=C(c6ccc[nH]6)C=CC4=C5)cc3C2=O)CC1 [NAN-190-2-NB590] | 1.01 | 1.00 | 
O=C(CCc1ccc2n1[B-](F)(F)[N+]1=C(c3ccc[nH]3)C=CC1=C2)NCc1ccc(C(=O)NCCOCCOCCNCC(O)COc2cccc3ccccc23)cc1 (centres unmarked) [Propranolol-3-NB590] |  |  | NanoBRET Fold Response (CXCR5, 0.1μM): 1.02; NanoBRET Fold Response (CXCR5, 1μM): 1.06
COc1ccccc1N1CCN(CCCCN2C(=O)c3ccc(CNC(=O)CCOCCNC(=O)c4ccc(CNC(=O)CCc5ccc6n5[B-](F)(F)[N+]5=C(c7ccc[nH]7)C=CC5=C6)cc4)cc3C2=O)CC1 [NAN-190-3-NB590] | 1.37 | 0.68 | 
O=C(CCc1ccc2n1[B-](F)(F)[N+]1=C(c3ccc[nH]3)C=CC1=C2)NCc1ccc(C(=O)NCCOCCC(=O)N[C@@H]2CC[C@@]3(O)[C@H]4Cc5ccc(O)c6c5[C@@]3(CCN4CC3CC3)[C@H]2O6)cc1 [Naltrexone-3-NB590] | 0.57 | 0.57 | 
CCOC(=O)c1cc(C#N)c(N2CCC(C(=O)NS(=O)(=O)Cc3ccccc3/C=C/C(=O)NCCNC(=O)CCc3ccc4n3[B-](F)(F)[N+]3=C(c5ccc[nH]5)C=CC3=C4)CC2)nc1C [AZD1283-1-NB590] |  |  | NanoBRET Fold Response (CXCR5, 0.1μM): 1.04; NanoBRET Fold Response (CXCR5, 1μM): 1.12
COc1ccc2[nH]c(-c3ccc(CNC(=O)CCOCCOCCOCCOCCNC(=O)CCc4ccc5n4[B-](F)(F)[N+]4=C(c6ccc[nH]6)C=CC4=C5)cc3)c(CCNC(C)=O)c2n1 [AzomelatoninICO9-2-NB590] |  |  | NanoBRET Fold Response (0.1μM tracer): 1.36; NanoBRET Fold Response (1μM tracer): 0.90
CC(C)N(CC[C@H](c1ccccc1)c1cc(CCNC(=O)CCOCCOCCOCCOCCNC(=O)CCc2ccc3n2[B-](F)(F)[N+]2=C(c4ccc[nH]4)C=CC2=C3)ccc1O)C(C)C [Tolterodine-2-NB590] | 1.31 | 1.00 | 
CN1CCN(C2=Nc3cc(Cl)ccc3N(CC(=O)NCCOCCOCCOCCOCCNC(=O)CCc3ccc4n3[B-](F)(F)[N+]3=C(c5ccc[nH]5)C=CC3=C4)c3ccccc32)CC1 [Clozapine-c-2-NB590] |  |  | NanoBRET Fold Response (CXCR5, 0.1μM tracer): 0.98; NanoBRET Fold Response (CXCR5, 1μM tracer): 0.98
N#CN=C(NCCCOc1cccc(CN2CCCCC2)c1)NCCNC(=O)CCOCCOCCOCCOCCNC(=O)CCc1ccc2n1[B-](F)(F)[N+]1=C(c3ccc[nH]3)C=CC1=C2 [Aminopotentidine-2-NB590] | 1.04 | 0.99 | 
COc1ccc2c(n1)c(CCNC(C)=O)cn2CCNC(=O)CCc1ccc2n1[B-](F)(F)[N+]1=C(c3ccc[nH]3)C=CC1=C2 [Azamelatonin-1-NB590] |  |  | NanoBRET Fold Response (0.1μM tracer): 0.93; NanoBRET Fold Response (1μM tracer): 1.19
CN(CCC=C1c2ccccc2CCc2ccccc21)C(=O)CCOCCOCCOCCOCCNC(=O)CCc1ccc2n1[B-](F)(F)[N+]1=C(c3ccc[nH]3)C=CC1=C2 [Amitriptyline-e-2-NB590] |  |  | NanoBRET Fold Response (tracer at 1μM): 0.98
CC(C)N(CC[C@H](c1ccccc1)c1cc(CCNC(=O)c2ccc(CNC(=O)CCc3ccc4n3[B-](F)(F)[N+]3=C(c5ccc[nH]5)C=CC3=C4)cc2)ccc1O)C(C)C [Tolterodine-BZ-NB590] | 0.86 | 0.91 | 
O=C(CCc1ccc2n1[B-](F)(F)[N+]1=C(c3ccc[nH]3)C=CC1=C2)NCCOCCOCCNC(=O)OCCOCCN1CCN(C2=Nc3ccccc3Sc3ccccc32)CC1 [Quetiapine-a-2-NB590] | 1.01 | 0.92 | 
Cc1cc2c(s1)Nc1ccccc1N=C2N1CCN(CCCNC(=O)CCOCCOCCOCCOCCNC(=O)CCc2ccc3n2[B-](F)(F)[N+]2=C(c4ccc[nH]4)C=CC2=C3)CC1 [Olanzapine-a-2-NB590] | 0.98 | 0.86 | 
CN(C)CCC=C1c2ccccc2CCc2ccc(C(=O)NCCNC(=O)CCOCCOCCOCCOCCNC(=O)CCc3ccc4n3[B-](F)(F)[N+]3=C(c5ccc[nH]5)C=CC3=C4)cc21 [Amitriptyline-b-2-NB590] |  |  | NanoBRET Fold Response (tracer at 0.1μM, listed as amitriptyline-b-2-NB590): 1.39; NanoBRET Fold Response (tracer at 1μM, listed as amitriptyline-b-2-NB590): 1.19
O=C(CCOCCOCCOCCOCCNC(=O)CCc1ccc2n1[B-](F)(F)[N+]1=C(c3ccc[nH]3)C=CC1=C2)NCCCN1CCN(C2=Nc3cc(Cl)ccc3Nc3ccccc32)CC1 [Clozapine-a-2-NB590] |  |  | NanoBRET Fold Response (CXCR5, 0.1μM tracer): 1.06; NanoBRET Fold Response (CXCR5, 1μM tracer): 1.01
CN1CCN(C2=Nc3cc(Cl)ccc3Nc3ccc(CNC(=O)CCOCCOCCOCCOCCNC(=O)CCc4ccc5n4[B-](F)(F)[N+]4=C(c6ccc[nH]6)C=CC4=C5)cc32)CC1 [Clozapine-b-2-NB590] |  |  | NanoBRET Fold Response (CXCR5, 0.1μM tracer): 0.95; NanoBRET Fold Response (CXCR5, 1μM tracer): 1.02
Cc1nc2n(c(=O)c1CCN1CCC(c3noc4cc(F)ccc34)CC1)CCCC2OC(=O)NCCOCCOCCOCCOCCNC(=O)CCc1ccc2n1[B-](F)(F)[N+]1=C(c3ccc[nH]3)C=CC1=C2 (centres unmarked) [Risperidone-2-NB590] | 1.10 | 0.93 | 
